In patent US9670480B2, “Genome-wide construction of Schizosaccharomyces pombe heterozygous deletion mutants containing gene-specific barcodes by the methods of 4-round serial or block PCR, or total gene synthesis thereof” (Korea Research Institute of Bioscience and Biotechnology, priority 2008, dated 2017):

How the values were obtained:
Wild-type SP286 strain = experiment: IC50 measurement of growth inhibition in YES broth (final O.D600, Prism); format: cell-based; settings: Schizosaccharomyces pombe, 30° C., 24 hours, read-out: IC50 (drug-induced inhibition against cell growth)
Procedure: In order to determine the concentration of the chemical for the treatment, 50% inhibitory concentration (IC50) was first measured. Wild-type SP286 strain was grown to O.D600=2.0 in YES broth and inoculated with from 5- to 10-fold serial dilutions of the chemical to O.D600=0.1, followed by incubation at 30° C. for 24 hours. At each concentration of the chemical, the cultures were measured for final O.D600 values which were then plotted against Log [Chemical Concentration]. On the basis of these plots, IC50 values were automatically calculated using Prism Software (version 3.0, GraphPad Software Inc., San Diego, Calif.). Scientific experience made it possible to determine the concentrations of the chemical at around the appropriate IC50 values.
In order to screen terbinafine's modes of action with the GeneChip, first, the treatment concentrations of drug were determined by the measurements of IC50 obtained in the above-mentioned method. In this regard, relative rates of drug-induced inhibition against cell growth were obtained by treating the cells with terbinafine at doses of 0.1 nM, 1 nM, 5 nM, 10 nM, 50 nM, 100 nM, 500 nM and […]. Analysis with Prism software determined IC50=40 nM (FIG. 11).

[1] = system: erg1 heterozygous deletion mutant; experiment: Reconfirmation of GeneChip result on YES agar plates containing terbinafine; format: cell-based, Schizosaccharomyces pombe
Procedure: (§1) Since the drug's modes of action detected with the GeneChip might include the false positive signals resulting experiment errors and false chip analysis, all the top 10 drug's modes of action, except non-specific ribosome-related genes, were cultured again on YES agar plates containing terbinafine. […] Therefore, the genes erg1 and pmm1 within the red boxes were verified as being targets of terbinafine.

[2] = system: pmm1 heterozygous deletion mutant; experiment: as above; format: cell-based, Schizosaccharomyces pombe
Procedure: as §1

[3] = system: smb1 heterozygous deletion mutant; experiment: as above; format: cell-based, Schizosaccharomyces pombe
Procedure: as §1

CN(C/C=C/C#CC(C)(C)C)Cc1cccc2ccccc12 [terbinafine]
IC50 (Wild-type SP286 strain): 0.04 µM | plate reconfirmation of GeneChip-based mode of action, erg1 [1]: same results as in the chip | plate reconfirmation of GeneChip-based mode of action, pmm1 [2]: same results as in the chip | plate reconfirmation of GeneChip-based mode of action, smb1 [3]: difference from the chip result
